According to article PMC12469161, “Anti-cancer compound screening identifies Aurora Kinase A inhibition as a means to favor CRISPR/Cas9 gene correction over knock-out” (PLOS One, 2025):
Where two headings read alike, the source gives them in different places.

Key:
HEK293T-eGFP cells = test: MTT cytotoxicity assay, 72 hours; type: cell-based
Protocol: Cells were cultured for 16–24 hours under standard culturing conditions (5% CO2, 37 °C). […] All dose ranges were added in duplicate, followed by 72 hours of incubation. Cell viability was determined using a tetrazolium based metabolic activity assay. Briefly, 5 µL of 3-(4.5-dimethylthiazol-2-yl)-2,5-diphenyltetrazolium bromide (MTT) solution (5 mg/mL MTT in sterile PBS) was added per well, and the microplates were incubated for 4 hours at 37°C and 5% CO2 in a cell culture incubator. Next, 40 µL of 10% SDS/0.01 M HCl was added per well, and the microplates were incubated for 24–72 hours at 37°C and 5% CO2 in a cell culture incubator. Subsequently the absorbance at 570 nm and background absorbance at 720 nm were measured using the Spectramax i3x (Molecular Devices, San Jose, USA). Subsequently, the absorbance values at 720 nm were subtracted from the absorbance values at 570 nm, and the corresponding values were used to plot dose-response curves.
The data was normalized to the DMSO-treated cells (defined as 100% viability) and the empty controls (defined as 0% viability).

[1] = test system: eGFP locus in HEK293T-eGFP cells (HDR vs NHEJ); test: CRISPR gene-editing outcome (eGFP to BFP conversion, flow cytometry) with CRISPR-Cas9 LNP; type: cell-based; conditions: for preferential activation of HDR over NHEJ in hit validation: narrowed dose range, triplicate, vs LNP only; for effect on the NHEJ and HDR outcomes: validated hits, Fig 2B; for effect on relative HDR in the compound screen: up to three dosages based on IC50, single measurements
Protocol: (§1) Compounds were assessed in three dosages to assess the effects on gene-editing efficacy. […] Cells were incubated with these compounds for 24 hours prior to LNP addition. LNP were added to all wells at a final concentration of 20 nM SpCas9 to achieve robust genome editing. After 24 hours of co-incubation, medium was refreshed and cells were transferred to a 48 well plate for further culturing. Six days after adding compounds, cells were processed for flow cytometric analysis of the gene knock-out and gene-correction efficiencies. Briefly, a ssDNA template was used carrying two nucleotide mutations to convert the eGFP sequence to that of a blue fluorescent protein (BFP), as well as mutating the PAM sequence to ensure robust HDR. The sgRNA spacer sequence was 5’-[…]-3’, and the HDR template sequence was 5’-[…]-3’.
Flow cytometry using the BD FACS Canto II (Becton Dickinson) was used to determine cells undergoing NHEJ (eGFP and BFP negative population) and HDR (eGFP negative, BFP positive). Data analysis was performed using Flowlogic (version 8.7). Graphpad PRISM (version 9.3.1) was used for statistical analysis and preparing graphs.
(§2) The percentage of HDR relative to total gene editing in a given cell population (hereafter named Relative HDR (% of edited cells) was calculated by dividing the absolute HDR population by the sum of gene-edited cells found in the BFP+ and eGFP- gates. Absolute HDR (% of all cells) and Absolute NHEJ (% of all cells) were analyzed where appropriate. The gating strategy is given in S1 Fig in S1 File.

[2] = test system: eGFP locus in Hepa 1–6-eGFP cells (HDR vs NHEJ); test: CRISPR gene-editing outcome (eGFP to BFP, flow cytometry) with ProDeliverIN CRISPR; type: cell-based, murine; conditions: Hepa 1–6-eGFP
From the text: Lipid nanoparticles (LNP) carrying SpCas9, sgRNA and HDR template DNA were formulated using the components and molecular ratios described previously. 1,1′-((2-(4-(2-((2-(bis(2-hydroxydodecyl)amino)ethyl)(2-hydroxydodecyl)amino)ethyl)piperazin-1-yl)ethyl)azanediyl)bis(dodecan-2-ol) (C12-200) was acquired from CordonPharma (Plankstadt, Germany) and used as the ionizable lipid in the formulation. 1,2-dioleoyl-sn-glycero-3-phosphoethanolamine (DOPE) was acquired from Lipoid GmbH (Steinhausen, Switzerland), Cholesterol and 1,2-dimyristoyl-rac-glycero-3-methoxypolyethylene glycol-2000 (PEG-DMG) were acquired from Sigma-Aldrich, and 1,2-dioleoyl-3-trimethylammonium-propane (DOTAP) was acquired from Merck (Darmstadt, Germany). LNP were produced using microfluidic mixing with the Dolomite Microfluidics system (Dolomite Microfluidics, Royston, United Kingdom) and herring-bone micromixer chip with hydrophilic coating (Dolomite Microfluidics, catalogue number 3200401). A total flow rate of 1.5 mL/min and flow rate ratio of 2:1 were used between an aqueous outer phase containing SpCas9, sgRNA and HDR template in nuclease free water, and the lipids in 100% ethanol in the inner phase, respectively. The resulting LNP were diluted 4 times in Dulbecco’s PBS (Sigma-Aldrich). In the experiments using the Hepa 1–6 eGFP cells, ProDeliverIN CRISPR (OZ Biosciences, San Diego, USA) was used as reported previously.
as §1
Flow cytometry using the BD FACS Canto II (Becton Dickinson) was used to determine cells undergoing NHEJ (eGFP and BFP negative population) and HDR (eGFP negative, BFP positive). […]
as §2

Hepa 1–6-eGFP cells = test: MTS cell viability and morphology, 5 days; type: cell-based, murine; conditions: 0.3 µM, after 5 days, vs untreated control
Protocol: A narrower cytotoxicity range was determined by exposing cells to 0.1–1 µM of the tested compounds. 48 hours after treatment started, cells were washed and harvested using medium and one third of the volume was transferred to a fresh 96 well plate, analogous to how cells are treated during gene editing experiments. Subsequently, cells were cultured for another 3–5 days. In the case of 5 days, one third of the cells was again transferred into a fresh 96-well plate on day 3 to allow enough space for logarithmic cell growth during the additional incubation time. Cell viability was determined by the Promega One Step MTS assay (Promega, Madison, USA) using the manufacturer’s specifications. Relative cell viability for the Hepa 1–6-eGFP cells was calculated by normalizing the compound conditions to controls treated with DMSO only or DMSO plus gene editing formulations. For the HEK293T cells, the absolute absorbance at […] was used as it was more representative of the relative cell viability between samples.
Cell morphology was assessed using the Nikon Eclipse Ti2 microscope (Nikon Europe, Amstelveen, The Netherlands). Pictures were acquired at 10x magnification with a Nikon DSLR 10 camera using the same imaging settings within each experiment set (Nikon Europe, Amstelveen, The Netherlands).

[3] = 72 h, HEK293T-eGFP cells, 3 days of incubation, MTT, read-out: IC50
[4] = HEK293T-eGFP cells, 3 days of incubation, MTT, read-out: IC50

Molecule | IC50 (HEK293T-eGFP cells; [3]) [nM] | further results
Cc1sc2c(c1C)C(c1ccc(Cl)cc1)=N[C@@H](CC(=O)Nc1ccc(O)cc1)c1nnc(C)n1-2 [Birabresib] | 540 | –
C[C@@H](NC(=O)c1ncnc(N)c1Cl)c1ncc(C(=O)Nc2cc(C(F)(F)F)c(Cl)cn2)s1 [TAK-580] | > 10000 | –
CCn1cc(-c2cccc(C(F)(F)F)c2)c2sc(C(=N)NC3CCS(=O)(=O)CC3)cc2c1=O [I-BRD9] | – | IC50 (HEK293T-eGFP cells; [4]): 8940 nM
CNCc1ccc(-c2[nH]c3cc(F)cc4c3c2CCNC4=O)cc1 [Rucaparib] | > 10000 | preferential activation of HDR over NHEJ in hit validation [1]: strong dose-dependent preferential activation of HDR over NHEJ; effect on the NHEJ and HDR outcomes [1]: inhibited NHEJ and improved HDR
CC[C@H](Nc1nc(NCc2cnc(C)cc2C)c2ncn(C(C)C)c2n1)[C@@H](C)O [CYC065] | 255 | –
CC(=O)O[C@H]1C(=O)[C@@]2(C)[C@H]([C@H](OC(=O)c3ccccc3)[C@]3(O)C[C@H](OC(=O)[C@H](O)[C@@H](NC(=O)c4ccccc4)c4ccccc4)C(C)=C1C3(C)C)[C@]1(OC(C)=O)CO[C@@H]1C[C@@H]2O [Paclitaxel] | 3.12 | –
NS(=O)(=O)OC[C@@H]1C[C@@H](n2ccc3c(N[C@H]4CCc5ccccc54)ncnc32)C[C@@H]1O [Pevonedistat] | 4740 | –
Cc1[nH]c2ccccc2c1CCNCc1ccc(/C=C/C(=O)NO)cc1 [Panobinostat] | 30.6 | effect on relative HDR in the compound screen [1]: did not show the same effect
Karonudib | – | IC50 (HEK293T-eGFP cells; [4]): 450 nM
Nc1ccccc1NC(=O)c1ccc(CNC(=O)OCc2cccnc2)cc1 [Entinostat] | 3560 | effect on relative HDR in the compound screen [1]: did not show the same effect
Oc1nc(-c2ccc(C(F)(F)F)cc2)nc2c1CSCC2 [XAV-939] | > 10000 | –
Cc1sc2c(c1C)C(c1ccc(Cl)cc1)=N[C@@H](CC(=O)O)c1nnc(C)n1-2 [JQ-1 COOH] | – | IC50 (HEK293T-eGFP cells; [4]): > 10000 nM
O=C(c1cc(Cc2n[nH]c(=O)c3ccccc23)ccc1F)N1CCN(C(=O)C2CC2)CC1 [Olaparib] | > 10000 | –
CN(C)C(=O)c1cc2cnc(Nc3ccc(N4CCNCC4)cn3)nc2n1C1CCCC1 [Ribociclib] | > 10000 | –
CC[C@@H]1C(=O)N(C)c2cnc(Nc3ccc(C(=O)N[C@H]4CC[C@H](N5CCN(CC6CC6)CC5)CC4)cc3OC)nc2N1C(C)C [Volasertib] | 24.5 | –
CNc1nc(-c2nc3ccc(N4CCN(C)CC4)cc3n2Cc2ccccc2)cn2c(C)nnc12 [BI 894999] | 582 | –
C=CCn1c(=O)c2cnc(Nc3ccc(N4CCN(C)CC4)cc3)nc2n1-c1cccc(C(C)(C)O)n1 [Adavosertib] | 227 | –
CN(C)C/C=C/C(=O)Nc1ccc(C(=O)Nc2cccc(Nc3ncc(Cl)c(-c4c[nH]c5ccccc45)n3)c2)cc1 [THZ1] | – | IC50 (HEK293T-eGFP cells; [4]): 37.1 nM
C[C@@H](Oc1cc(-n2cnc3ccc(CN4CCN(C)CC4)cc32)sc1C(N)=O)c1ccccc1C(F)(F)F [GSK461364] | 8.35 | –

Molecule | IC50 (HEK293T-eGFP cells; [3]) [nM] | further results
COc1ccc(Cn2ccc3ccc(C(=O)NO)cc32)cc1 [PCI-34051] | – | IC50 (HEK293T-eGFP cells; [4]): > 10000 nM
C[C@@H]1CN(CC(=O)Nc2ccc3c(c2)Cc2cccc(-c4cc(=O)cc(N5CCOCC5)o4)c2S3)C[C@H](C)O1 [KU-60019] | > 10000 | –
Cc1sc2c(c1C)C(c1ccc(Cl)cc1)=N[C@@H](CC(N)=O)c1nnc(C)n1-2 [CPI-203] | – | IC50 (HEK293T-eGFP cells; [4]): 651 nM
CCN1CCN(Cc2ccc(Nc3ncc(F)c(-c4cc(F)c5nc(C)n(C(C)C)c5c4)n3)nc2)CC1 [Abemaciclib] | 1070 | –
O=C(NC1CCNCC1)c1[nH]ncc1NC(=O)c1c(Cl)cccc1Cl [AT7519] | 438 | –
C[C@]12CCCN1CC1=NNC(=O)c3cc(F)cc4[nH]c2c1c34 [Pamiparib] | > 10000 | –
Nc1cc(F)ccc1NC(=O)c1ccc(CNC(=O)/C=C/c2cccnc2)cc1 [Epidaza] | > 10000 | effect on relative HDR in the compound screen [1]: did not show an effect towards improving HDR
COc1cccc(OCCCN)c1-c1cc(Nc2cnc(C#N)cn2)n[nH]1 [Prexasertib] | 5.33 | –
O=c1cc(-c2cccc3c2Sc2ccccc2S3)oc(N2CCOCC2)c1 [KU-55933] | > 10000 | –
CC(C)c1c(-c2ccccc2)[nH]c2c(C#N)cnn2c1=O [CPI-455] | – | IC50 (HEK293T-eGFP cells; [4]): > 10000 nM
C[C@@H]1COCCN1c1cc(C2([S@](C)(=N)=O)CC2)nc(-c2cc[nH]c3nccc2-3)n1 [Ceralasertib] | 1840 | –
C/C=C1\NC(=O)[C@H]2CSSCC/C=C/[C@H](CC(=O)N[C@H](C(C)C)C(=O)N2)OC(=O)[C@H](C(C)C)NC1=O [Romidepsin] | – | IC50 (HEK293T-eGFP cells; 72 h): 16.4 nM; effect on relative HDR in the compound screen [1]: strongly inhibited HDR
CCn1cc(-c2ccnc3[nH]c(-c4cccc(CN(C)C)c4)cc23)c(-c2ccc(NC(=O)N(C)C)cc2)n1 [GSK1070916] | 1390 | effect on relative HDR in the compound screen [1]: did not show an effect toward relative HDR activation
Cc1cc(C)cc(C(=O)NOCCCCCC(=O)NO)c1 [LMK-235] | – | IC50 (HEK293T-eGFP cells; [4]): 1790 nM
CO[C@@H](C(=O)N1Cc2n[nH]c(NC(=O)c3ccc(N4CCN(C)CC4)cc3)c2C1)c1ccccc1 [Danusertib, danusertib] | – | dosage with overall high efficacy and manageable toxicity [2]: 0.3 µM; cell morphology by microscopy (Hepa 1–6-eGFP cells): not disrupted
CN(C)C/C=C/C(=O)Nc1ccc(C(=O)N2CCC[C@@H](Nc3ncc(Cl)c(-c4c[nH]c5ccccc45)n3)C2)cc1 [THZ531] | 352 | –
O=C(/C=C/c1cccc(S(=O)(=O)Nc2ccccc2)c1)NO [Belinostat] | 1100 | preferential activation of HDR over NHEJ in hit validation [1]: strong dose-dependent preferential activation of HDR over NHEJ; effect on the NHEJ and HDR outcomes [1]: increased both NHEJ and HDR
Cc1ncc(Cl)cc1NCc1ccc(C(=O)N[C@@H](CC2CCCC2)C(=O)NC2CC2)s1 [GSK2830371] | > 10000 | –
CNCc1ccc(-c2cc(-c3nc(-c4ccc(S(=O)(=O)C(C)C)cc4)cnc3N)on2)cc1 [Berzosertib] | 335 | –
